According to US6737383B1, “Herbicidal oxadiazolidines” (priority 1999, dated 2004):

Columns and labels:
crabgrass = assay: Test B pre/postemergence crabgrass; format: in vivo, Digitaria sanguinalis
Summary of the method: (§1)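 Herbicidal effect was estimated by eye on a ten-point control scale after plants spent twelve to sixteen days in a greenhouse following soil or foliar treatment. Foliar sprays targeted plants at one to four leaves; all doses were formulated in a non-phytotoxic solvent with surfactant.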

bamyardgrass = assay: Test B flood test barnyardgrass; format: in vivo, Echinochloa crus-galli
Summary of the method: (§2)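 Read-out is a visual response score from 0 (no effect) to 10 (complete control), assigned by comparison with untreated controls. Treatment was applied at the 2-leaf stage, and plants stayed in the greenhouse for twelve to sixteen days before scoring.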

purple nutsedge = assay: Test B pre/postemergence purple nutsedge; format: in vivo, Cyperus rotundus
Summary of the method: as §1

cocklebur = assay: Test B pre/postemergence cocklebur; format: in vivo, Xanthium strumarium
Summary of the method: as §1

sugar beet = assay: Test B pre/postemergence sugar beet; format: in vivo, Beta vulgaris
Summary of the method: as §1

bedstraw = assay: Test B pre/postemergence bedstraw; format: in vivo, Galium aparine
Summary of the method: as §1

surinam grass = assay: Test B pre/postemergence surinam grass; format: in vivo, Brachiaria decumbens
Summary of the method: as §1

smallflower flatsedge = assay: Test B flood test smallflower flatsedge; format: in vivo, Cyperus difformis
Summary of the method: as §2

wild oat = assay: Test B pre/postemergence wild oat; format: in vivo, Avena fatua
Summary of the method: as §1

corn = assay: Test B pre/postemergence corn; format: in vivo, Zea mays
Summary of the method: as §1

rape = assay: Test B pre/postemergence rape; format: in vivo, Brassica napus
Summary of the method: as §1

soybean = assay: Test B pre/postemergence soybean; format: in vivo, Glycine max
Summary of the method: as §1

blackgrass = assay: Test B pre/postemergence blackgrass; format: in vivo, Alopecurus myosuroides
Summary of the method: as §1

duck salad = assay: Test B flood test duck salad; format: in vivo, Heteranthera limosa
Summary of the method: as §2

rice = assay: Test B flood test rice; format: in vivo, Oryza sativa
Summary of the method: as §2

wheat = assay: Test B pre/postemergence wheat; format: in vivo, Triticum aestivum
Summary of the method: as §1

velvetleaf = assay: Test B pre/postemergence velvetleaf; format: in vivo, Abutilon theophrasti
Summary of the method: as §1

[1] = Preemergence, Rate 62 g/ha, scale of 0 to 10 where 0 is no effect and 10 is complete control
[2] = Preemergence, Rate 250 g/ha, scale of 0 to 10 where 0 is no effect and 10 is complete control
[3] = Preemergence, Rate 500 g/ha, scale of 0 to 10 where 0 is no effect and 10 is complete control
[4] = Rate 62 g/ha, Postemergence, scale 0 to 10 (0 no effect, 10 complete control)
[5] = Rate 125 g/ha, Postemergence, scale of 0 to 10 where 0 is no effect and 10 is complete control
[6] = Rate 125 g/ha, Preemergence, scale of 0 to 10 where 0 is no effect and 10 is complete control
[7] = Rate 250 g/ha, Postemergence, scale of 0 to 10 where 0 is no effect and 10 is complete control
[8] = Rate 62 g/ha, headed Pre-emergence (flood test species), scale 0 to 10 (0 no effect, 10 complete control)
[9] = Rate 125 g/ha, Pre-emergence, flood test species, scale 0 to 10 where 0 is no effect and 10 is complete control
[10] = Rate 250 g/ha, Pre-emergence, flood-test species, scale 0 to 10, 0 is no effect, 10 is complete control
[11] = Rate 500 g/ha, Pre-emergence, flood test species, scale 0 to 10 (0 no effect, 10 complete control)
[12] = Rate 500 g/ha, Postemergence, scale 0 to 10, 0 no effect, 10 complete control

CCN(CC)C(=O)n1oc(=O)n(C2CC2)c1=O [Compound 297]
3: S. Flatsedge plant response rating (smallflower flatsedge; [10]) | S. Flatsedge plant response rating (smallflower flatsedge; [11]) | Soybean plant response rating (soybean; [5]) | Plant response rating, Soybean (soybean; [7])
2: Crabgrass plant response rating (crabgrass; [6]) | Soybean plant response rating (soybean; [4])
0: Crabgrass plant response rating (crabgrass; [1]) | Crabgrass plant response rating (crabgrass; [4]) | Crabgrass plant response rating (crabgrass; [5]) | Plant response rating, Crabgrass (crabgrass; [7]) | Barnyardgrass plant response rating (bamyardgrass; [8]) | Barnyardgrass plant response rating (bamyardgrass; [9]) | Barnyardgrass plant response rating (bamyardgrass; [10]) | Barnyardgrass plant response rating (bamyardgrass; [11]) | Nutsedge plant response rating (purple nutsedge; [2]) | Plant response rating, Nutsedge (purple nutsedge; [3]) | Nutsedge plant response rating (purple nutsedge; [4]) | Nutsedge plant response rating (purple nutsedge; [5]) | Nutsedge plant response rating (purple nutsedge; [6]) | Plant response rating, Nutsedge (purple nutsedge; [7]) | Cocklebur plant response rating (cocklebur; [1]) | Cocklebur plant response rating (cocklebur; [2]) | Plant response rating, Cocklebur (cocklebur; [3]) | Cocklebur plant response rating (cocklebur; [4]) | Cocklebur plant response rating (cocklebur; [5]) | Cocklebur plant response rating (cocklebur; [6]) | Plant response rating, Cocklebur (cocklebur; [7]) | Cocklebur plant response rating (cocklebur; [12]) | Sugarbeets plant response rating (sugar beet; [1]) | Sugarbeets plant response rating (sugar beet; [2]) | Plant response rating, Sugarbeets (sugar beet; [3]) | Sugarbeets plant response rating (sugar beet; [4]) | Sugarbeets plant response rating (sugar beet; [5]) | Sugarbeets plant response rating (sugar beet; [6]) | Plant response rating, Sugarbeets (sugar beet; [7]) | Bedstraw plant response rating (bedstraw; [2]) | Plant response rating, Bedstraw (bedstraw; [3]) | Bedstraw plant response rating (bedstraw; [4]) | Bedstraw plant response rating (bedstraw; [5]) | Bedstraw plant response rating (bedstraw; [6]) | B. signalgrass plant response rating (surinam grass; [1]) | B. signalgrass plant response rating (surinam grass; [2]) | Plant response rating, B. signalgrass (surinam grass; [3]) | B. signalgrass plant response rating (surinam grass; [4]) | B. signalgrass plant response rating (surinam grass; [5]) | B. signalgrass plant response rating (surinam grass; [6]) | Plant response rating, B. signalgrass (surinam grass; [7]) | B. signalgrass plant response rating (surinam grass; [12]) | S. Flatsedge plant response rating (smallflower flatsedge; [8]) | S. Flatsedge plant response rating (smallflower flatsedge; [9]) | Wild oats plant response rating (wild oat; [1]) | Wild oats plant response rating (wild oat; [2]) | Plant response rating, Wild oats (wild oat; [3]) | Wild oats plant response rating (wild oat; [4]) | Wild oats plant response rating (wild oat; [5]) | Plant response rating, Wild oats (wild oat; [7]) | Corn plant response rating (corn; [1]) | Corn plant response rating (corn; [2]) | Plant response rating, Corn (corn; [3]) | Corn plant response rating (corn; [4]) | Corn plant response rating (corn; [5]) | Corn plant response rating (corn; [6]) | Plant response rating, Corn (corn; [7]) | Corn plant response rating (corn; [12]) | Rape plant response rating (rape; [1]) | Rape plant response rating (rape; [2]) | Plant response rating, Rape (rape; [3]) | Rape plant response rating (rape; [4]) | Rape plant response rating (rape; [5]) | Rape plant response rating (rape; [6]) | Plant response rating, Rape (rape; [7]) | Soybean plant response rating (soybean; [1]) | Soybean plant response rating (soybean; [2]) | Plant response rating, Soybean (soybean; [3]) | Soybean plant response rating (soybean; [6]) | Blackgrass plant response rating (blackgrass; [1]) | Blackgrass plant response rating (blackgrass; [2]) | Plant response rating, Blackgrass (blackgrass; [3]) | Blackgrass plant response rating (blackgrass; [4]) | Blackgrass plant response rating (blackgrass; [5]) | Blackgrass plant response rating (blackgrass; [6]) | Plant response rating, Blackgrass (blackgrass; [7]) | Blackgrass plant response rating (blackgrass; [12]) | Ducksalad plant response rating (duck salad; [8]) | Ducksalad plant response rating (duck salad; [9]) | Ducksalad plant response rating (duck salad; [10]) | Ducksalad plant response rating (duck salad; [11]) | Rice plant response rating (rice; [8]) | Rice plant response rating (rice; [9]) | Rice plant response rating (rice; [10]) | Rice plant response rating (rice; [11]) | Wheat plant response rating (wheat; [1]) | Wheat plant response rating (wheat; [2]) | Plant response rating, Wheat (wheat; [3]) | Wheat plant response rating (wheat; [4]) | Wheat plant response rating (wheat; [5]) | Wheat plant response rating (wheat; [6]) | Plant response rating, Wheat (wheat; [7]) | Velvetleaf plant response rating (velvetleaf; [1]) | Velvetleaf plant response rating (velvetleaf; [2]) | Plant response rating, Velvetleaf (velvetleaf; [3]) | Velvetleaf plant response rating (velvetleaf; [4]) | Velvetleaf plant response rating (velvetleaf; [5]) | Velvetleaf plant response rating (velvetleaf; [6]) | Plant response rating, Velvetleaf (velvetleaf; [7])
7: Crabgrass plant response rating (crabgrass; [2]) | Plant response rating, Crabgrass (crabgrass; [3])
